Measurements as given in ChEMBL document CHEMBL1201861, “Genomics of Drug Sensitity in Cancer screening data, Wellcome Trust Sanger Institute”.

tested on: Calu-6; experiment: cells; assay type: functional, cell-based, Homo sapiens; conditions: Homo sapiens, Calu-6;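 note: growth of human Calu-6 cells, read out by a cell viability assay, IC50 marking inhibition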
Description: SANGER: Inhibition of human Calu-6 cell growth in a cell viability assay.

Which IC50 does the source give for `C#Cc1cccc(Nc2ncnc3cc(OCCOC)c(OCCOC)cc23)c1` [ERLOTINIB] here?
The IC50 was greater than 2000 nM.

tested on: D-247MG; experiment: cells; assay type: functional, cell-based, Homo sapiens; conditions: Homo sapiens, D-247MG
Description: SANGER: Inhibition of human D-247MG cell growth in a cell viability assay.

How did the IC50 turn out when `C#Cc1cccc(Nc2ncnc3cc(OCCOC)c(OCCOC)cc23)c1` [ERLOTINIB] was run?
Its IC50 is greater than 2000 nM.

tested on: D-263MG; experiment: cells; assay type: functional, cell-based, Homo sapiens; conditions: Homo sapiens, D-263MG
Description: SANGER: Inhibition of human D-263MG cell growth in a cell viability assay.

For `C#Cc1cccc(Nc2ncnc3cc(OCCOC)c(OCCOC)cc23)c1` [ERLOTINIB], which IC50 is on record?
Its IC50 is greater than 2000 nM.

tested on: DMS-79; experiment: cells; assay type: functional, cell-based, Homo sapiens; conditions: Homo sapiens, DMS-79;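 note: growth inhibition measured with a cell viability assay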
Description: SANGER: Inhibition of human DMS-79 cell growth in a cell viability assay.

`C#Cc1cccc(Nc2ncnc3cc(OCCOC)c(OCCOC)cc23)c1` [ERLOTINIB] was tested. Which IC50 did it give?
Its IC50 is greater than 2000 nM.

tested on: DU-4475; experiment: cells; assay type: functional, cell-based, Homo sapiens; conditions: Homo sapiens, DU-4475
Description: SANGER: Inhibition of human DU-4475 cell growth in a cell viability assay.

Which IC50 does the source give for `C#Cc1cccc(Nc2ncnc3cc(OCCOC)c(OCCOC)cc23)c1` [ERLOTINIB] here?
The IC50 was greater than 2000 nM.

tested on: EW-1; experiment: cells; assay type: functional, cell-based, Homo sapiens; conditions: Homo sapiens, EW-1;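 note: growth inhibition of the human EW-1 cell line, read out by a cell viability assay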
Description: SANGER: Inhibition of human EW-1 cell growth in a cell viability assay.

For `C#Cc1cccc(Nc2ncnc3cc(OCCOC)c(OCCOC)cc23)c1` [ERLOTINIB], which IC50 is on record?
Its IC50 is greater than 2000 nM.

tested on: HCC2218; experiment: cells; assay type: functional, cell-based, Homo sapiens; conditions: Homo sapiens, HCC2218;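 note: cell viability assay read-out, with IC50 given as the concentration that inhibits growth of the cell line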
Description: SANGER: Inhibition of human HCC2218 cell growth in a cell viability assay.

Which IC50 does the source give for `C#Cc1cccc(Nc2ncnc3cc(OCCOC)c(OCCOC)cc23)c1` [ERLOTINIB] here?
The IC50 was greater than 2000 nM.

tested on: HEL; experiment: cells; assay type: functional, cell-based, Homo sapiens; conditions: Homo sapiens, HEL;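 note: growth inhibition of HEL cells, read out with a cell viability assay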
Description: SANGER: Inhibition of human HEL cell growth in a cell viability assay.

How did the IC50 turn out when `C#Cc1cccc(Nc2ncnc3cc(OCCOC)c(OCCOC)cc23)c1` [ERLOTINIB] was run?
Its IC50 is greater than 2000 nM.

tested on: HT; experiment: cells; assay type: functional, cell-based, Homo sapiens; conditions: Homo sapiens, HT
Description: SANGER: Inhibition of human HT cell growth in a cell viability assay.

`C#Cc1cccc(Nc2ncnc3cc(OCCOC)c(OCCOC)cc23)c1` [ERLOTINIB] was tested. Which IC50 did it give?
The IC50 was greater than 2000 nM.

tested on: HT-144; experiment: cells; assay type: functional, cell-based, Homo sapiens; conditions: Homo sapiens, HT-144
Description: SANGER: Inhibition of human HT-144 cell growth in a cell viability assay.

For `C#Cc1cccc(Nc2ncnc3cc(OCCOC)c(OCCOC)cc23)c1` [ERLOTINIB], which IC50 is on record?
Its IC50 is greater than 2000 nM.

tested on: HuTu80; experiment: cells; assay type: functional, cell-based, Homo sapiens, HUTU-80; conditions: Homo sapiens, HuTu80;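 note: growth inhibition of HuTu80 human cells, determined with a cell viability readout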
Description: SANGER: Inhibition of human HUTU-80 cell growth in a cell viability assay.

Which IC50 does the source give for `C#Cc1cccc(Nc2ncnc3cc(OCCOC)c(OCCOC)cc23)c1` [ERLOTINIB] here?
Its IC50 is greater than 2000 nM.

tested on: KM12; experiment: cells; assay type: functional, cell-based, Homo sapiens; conditions: Homo sapiens, KM12;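 note: KM12 cell growth inhibition, read out with a cell viability assay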
Description: SANGER: Inhibition of human KM12 cell growth in a cell viability assay.

With `C#Cc1cccc(Nc2ncnc3cc(OCCOC)c(OCCOC)cc23)c1` [ERLOTINIB] as the compound, how does the IC50 read?
The IC50 was greater than 2000 nM.

tested on: LB996-RCC; experiment: cells; assay type: functional, cell-based, Homo sapiens; conditions: Homo sapiens, LB996-RCC
Description: SANGER: Inhibition of human LB996-RCC cell growth in a cell viability assay.

Which IC50 does the source give for `C#Cc1cccc(Nc2ncnc3cc(OCCOC)c(OCCOC)cc23)c1` [ERLOTINIB] here?
The IC50 was 402 nM.

tested on: LC-2-ad; experiment: cells; assay type: functional, cell-based, Homo sapiens; conditions: Homo sapiens, LC-2-ad;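 note: growth inhibition of human LC-2-ad cells, read out with a cell viability assay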
Description: SANGER: Inhibition of human LC-2-ad cell growth in a cell viability assay.

For `C#Cc1cccc(Nc2ncnc3cc(OCCOC)c(OCCOC)cc23)c1` [ERLOTINIB], which IC50 is on record?
The IC50 was greater than 2000 nM.

tested on: LNCaP-Clone-FGC; experiment: cells; assay type: functional, cell-based, Homo sapiens; conditions: Homo sapiens, LNCaP-Clone-FGC
Description: SANGER: Inhibition of human LNCaP-Clone-FGC cell growth in a cell viability assay.

Which IC50 does the source give for `C#Cc1cccc(Nc2ncnc3cc(OCCOC)c(OCCOC)cc23)c1` [ERLOTINIB] here?
Its IC50 is greater than 2000 nM.

tested on: MZ1-PC; experiment: cells; assay type: functional, cell-based, Homo sapiens; conditions: Homo sapiens, MZ1-PC;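 note: cell viability assay measuring growth inhibition of human MZ1-PC cells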
Description: SANGER: Inhibition of human MZ1-PC cell growth in a cell viability assay.

How did the IC50 turn out when `C#Cc1cccc(Nc2ncnc3cc(OCCOC)c(OCCOC)cc23)c1` [ERLOTINIB] was run?
Its IC50 is greater than 2000 nM.

tested on: MZ7-mel; experiment: cells; assay type: functional, cell-based, Homo sapiens; conditions: Homo sapiens, MZ7-mel;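 note: growth inhibition of human MZ7-mel cells, measured by a cell viability assay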
Description: SANGER: Inhibition of human MZ7-mel cell growth in a cell viability assay.

Which IC50 does the source give for `C#Cc1cccc(Nc2ncnc3cc(OCCOC)c(OCCOC)cc23)c1` [ERLOTINIB] here?
The IC50 was greater than 2000 nM.

tested on: NB10; experiment: cells; assay type: functional, cell-based, Homo sapiens; conditions: Homo sapiens, NB10;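 note: growth inhibition of NB10 cells, read out by a cell viability assay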
Description: SANGER: Inhibition of human NB10 cell growth in a cell viability assay.

For `C#Cc1cccc(Nc2ncnc3cc(OCCOC)c(OCCOC)cc23)c1` [ERLOTINIB], which IC50 is on record?
The IC50 was greater than 2000 nM.

tested on: NB5; experiment: cells; assay type: functional, cell-based, Homo sapiens; conditions: Homo sapiens, NB5;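 note: growth inhibition of NB5 cells, read out as cell viability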
Description: SANGER: Inhibition of human NB5 cell growth in a cell viability assay.

How did the IC50 turn out when `C#Cc1cccc(Nc2ncnc3cc(OCCOC)c(OCCOC)cc23)c1` [ERLOTINIB] was run?
The IC50 was greater than 2000 nM.

tested on: NCI-H1092; experiment: cells; assay type: functional, cell-based, Homo sapiens; conditions: Homo sapiens, NCI-H1092;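 note: cell growth inhibition measured with a cell viability assay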
Description: SANGER: Inhibition of human NCI-H1092 cell growth in a cell viability assay.

`C#Cc1cccc(Nc2ncnc3cc(OCCOC)c(OCCOC)cc23)c1` [ERLOTINIB] was tested. Which IC50 did it give?
Its IC50 is greater than 2000 nM.

tested on: NCI-H2126; experiment: cells; assay type: functional, cell-based, Homo sapiens; conditions: Homo sapiens, NCI-H2126;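 note: growth inhibition of the cancer cell line, determined with a cell viability readout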
Description: SANGER: Inhibition of human NCI-H2126 cell growth in a cell viability assay.

Which IC50 does the source give for `C#Cc1cccc(Nc2ncnc3cc(OCCOC)c(OCCOC)cc23)c1` [ERLOTINIB] here?
The IC50 was greater than 2000 nM.

tested on: NCI-H226; experiment: cells; assay type: functional, cell-based, Homo sapiens; conditions: Homo sapiens, NCI-H226;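 note: cell viability read-out used to gauge growth inhibition of the cells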
Description: SANGER: Inhibition of human NCI-H226 cell growth in a cell viability assay.

Which IC50 does the source give for `C#Cc1cccc(Nc2ncnc3cc(OCCOC)c(OCCOC)cc23)c1` [ERLOTINIB] here?
Its IC50 is greater than 2000 nM.

tested on: NCI-H446; experiment: cells; assay type: functional, cell-based, Homo sapiens; conditions: Homo sapiens, NCI-H446;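 note: growth inhibition of NCI-H446 cells determined by a cell viability assay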
Description: SANGER: Inhibition of human NCI-H446 cell growth in a cell viability assay.

`C#Cc1cccc(Nc2ncnc3cc(OCCOC)c(OCCOC)cc23)c1` [ERLOTINIB] was tested. Which IC50 did it give?
Its IC50 is greater than 2000 nM.

tested on: NCI-H69; experiment: cells; assay type: functional, cell-based, Homo sapiens; conditions: Homo sapiens, NCI-H69;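 note: growth inhibition of the cell line, read out with a cell viability assay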
Description: SANGER: Inhibition of human NCI-H69 cell growth in a cell viability assay.

`C#Cc1cccc(Nc2ncnc3cc(OCCOC)c(OCCOC)cc23)c1` [ERLOTINIB] was tested. Which IC50 did it give?
Its IC50 is greater than 2000 nM.

tested on: SNU-5; experiment: cells; assay type: functional, cell-based, Homo sapiens; conditions: Homo sapiens, SNU-5;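 note: cell viability readout used to measure growth inhibition in human NCI-SNU-5 cells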
Description: SANGER: Inhibition of human NCI-SNU-5 cell growth in a cell viability assay.

How did the IC50 turn out when `C#Cc1cccc(Nc2ncnc3cc(OCCOC)c(OCCOC)cc23)c1` [ERLOTINIB] was run?
Its IC50 is greater than 2000 nM.

tested on: NH-12; experiment: cells; assay type: functional, cell-based, Homo sapiens; conditions: Homo sapiens, NH-12;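 note: growth inhibition of NH-12 cells, read out with a cell viability assay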
Description: SANGER: Inhibition of human NH-12 cell growth in a cell viability assay.

With `C#Cc1cccc(Nc2ncnc3cc(OCCOC)c(OCCOC)cc23)c1` [ERLOTINIB] as the compound, how does the IC50 read?
Its IC50 is greater than 2000 nM.

tested on: QIMR-WIL; experiment: cells; assay type: functional, cell-based, Homo sapiens; conditions: Homo sapiens, QIMR-WIL;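 note: growth inhibition of QIMR-WIL cells, read out with a cell viability assay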
Description: SANGER: Inhibition of human QIMR-WIL cell growth in a cell viability assay.

Which IC50 does the source give for `C#Cc1cccc(Nc2ncnc3cc(OCCOC)c(OCCOC)cc23)c1` [ERLOTINIB] here?
The IC50 was greater than 2000 nM.

tested on: RS4-11; experiment: cells; assay type: functional, cell-based, Homo sapiens; conditions: Homo sapiens, RS4-11;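 note: growth inhibition of RS4-11 cells, read out by a cell viability assay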
Description: SANGER: Inhibition of human RS4-11 cell growth in a cell viability assay.

Which IC50 does the source give for `C#Cc1cccc(Nc2ncnc3cc(OCCOC)c(OCCOC)cc23)c1` [ERLOTINIB] here?
The IC50 was greater than 2000 nM.

tested on: RXF 393; experiment: cells; assay type: functional, cell-based, Homo sapiens; conditions: Homo sapiens, RXF 393;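 note: growth inhibition of human RXF 393 cells, read out with a cell viability assay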
Description: SANGER: Inhibition of human RXF393 cell growth in a cell viability assay.

With `C#Cc1cccc(Nc2ncnc3cc(OCCOC)c(OCCOC)cc23)c1` [ERLOTINIB] as the compound, how does the IC50 read?
Its IC50 is greater than 2000 nM.

tested on: Ramos-2G6-4C10; experiment: cells; assay type: functional, cell-based, Homo sapiens; conditions: Homo sapiens, Ramos-2G6-4C10;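 note: growth inhibition of the cell line, measured by a cell viability read-out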
Description: SANGER: Inhibition of human Ramos-2G6-4C10 cell growth in a cell viability assay.

Which IC50 does the source give for `C#Cc1cccc(Nc2ncnc3cc(OCCOC)c(OCCOC)cc23)c1` [ERLOTINIB] here?
The IC50 was greater than 2000 nM.

tested on: SCH; experiment: cells; assay type: functional, cell-based, Homo sapiens; conditions: Homo sapiens, SCH;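 note: growth inhibition of human SCH cells, read out in a cell viability assay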
Description: SANGER: Inhibition of human SCH cell growth in a cell viability assay.

`C#Cc1cccc(Nc2ncnc3cc(OCCOC)c(OCCOC)cc23)c1` [ERLOTINIB] was tested. Which IC50 did it give?
The IC50 was greater than 2000 nM.

tested on: SJSA-1; experiment: cells; assay type: functional, cell-based, Homo sapiens; conditions: Homo sapiens, SJSA-1;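 note: growth inhibition of human SJSA-1 cells, read out through a cell viability measurement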
Description: SANGER: Inhibition of human SJSA-1 cell growth in a cell viability assay.

`C#Cc1cccc(Nc2ncnc3cc(OCCOC)c(OCCOC)cc23)c1` [ERLOTINIB] was tested. Which IC50 did it give?
The IC50 was greater than 2000 nM.

tested on: SK-LMS-1; experiment: cells; assay type: functional, cell-based, Homo sapiens; conditions: Homo sapiens, SK-LMS-1;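 note: growth inhibition of human SK-LMS-1 cells, read out with a cell viability assay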
Description: SANGER: Inhibition of human SK-LMS-1 cell growth in a cell viability assay.

Which IC50 does the source give for `C#Cc1cccc(Nc2ncnc3cc(OCCOC)c(OCCOC)cc23)c1` [ERLOTINIB] here?
The IC50 was greater than 2000 nM.

tested on: SK-MEL-2; experiment: cells; assay type: functional, cell-based, Homo sapiens; conditions: Homo sapiens, SK-MEL-2;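 note: growth inhibition of human SK-MEL-2 cells measured with a cell viability assay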
Description: SANGER: Inhibition of human SK-MEL-2 cell growth in a cell viability assay.

Which IC50 does the source give for `C#Cc1cccc(Nc2ncnc3cc(OCCOC)c(OCCOC)cc23)c1` [ERLOTINIB] here?
Its IC50 is greater than 2000 nM.

tested on: SK-PN-DW; experiment: cells; assay type: functional, cell-based, Homo sapiens; conditions: Homo sapiens, SK-PN-DW;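 note: growth inhibition measured with a viability assay on these cells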
Description: SANGER: Inhibition of human SK-PN-DW cell growth in a cell viability assay.

How did the IC50 turn out when `C#Cc1cccc(Nc2ncnc3cc(OCCOC)c(OCCOC)cc23)c1` [ERLOTINIB] was run?
Its IC50 is greater than 2000 nM.

tested on: SW684; experiment: cells; assay type: functional, cell-based, Homo sapiens; conditions: Homo sapiens, SW684;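 note: growth inhibition of human SW684 cells, measured by a cell viability assay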
Description: SANGER: Inhibition of human SW684 cell growth in a cell viability assay.

Which IC50 does the source give for `C#Cc1cccc(Nc2ncnc3cc(OCCOC)c(OCCOC)cc23)c1` [ERLOTINIB] here?
Its IC50 is greater than 2000 nM.

tested on: ACN; experiment: cells; assay type: functional, cell-based, Homo sapiens; conditions: Homo sapiens, ACN;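 note: growth inhibition of the human ACN cell line, read out via cell viability testing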
Description: SANGER: Inhibition of human ACN cell growth in a cell viability assay.

For `C#Cc1cccc(Nc2ncnc3cc(OCCOC)c(OCCOC)cc23)c1` [ERLOTINIB], which IC50 is on record?
Its IC50 is greater than 2000 nM.

tested on: AM-38; experiment: cells; assay type: functional, cell-based, Homo sapiens; conditions: Homo sapiens, AM-38;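 note: growth inhibition of AM-38 cells of human origin, read out by a cell viability assay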
Description: SANGER: Inhibition of human AM-38 cell growth in a cell viability assay.

How did the IC50 turn out when `C#Cc1cccc(Nc2ncnc3cc(OCCOC)c(OCCOC)cc23)c1` [ERLOTINIB] was run?
Its IC50 is greater than 2000 nM.

tested on: BT-474; experiment: cells; assay type: functional, cell-based, Homo sapiens; conditions: Homo sapiens, BT-474
Description: SANGER: Inhibition of human BT-474 cell growth in a cell viability assay.

For `C#Cc1cccc(Nc2ncnc3cc(OCCOC)c(OCCOC)cc23)c1` [ERLOTINIB], which IC50 is on record?
Its IC50 is greater than 2000 nM.

tested on: Becker; experiment: cells; assay type: functional, cell-based, Homo sapiens; conditions: Homo sapiens, Becker;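 note: growth inhibition of Becker cells, read out with a cell viability assay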
Description: SANGER: Inhibition of human Becker cell growth in a cell viability assay.

With `C#Cc1cccc(Nc2ncnc3cc(OCCOC)c(OCCOC)cc23)c1` [ERLOTINIB] as the compound, how does the IC50 read?
The IC50 was greater than 2000 nM.

tested on: C8166; experiment: cells; assay type: functional, cell-based, Homo sapiens; conditions: Homo sapiens, C8166;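 note: growth inhibition of human C8166 cells measured by a cell viability assay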
Description: SANGER: Inhibition of human C8166 cell growth in a cell viability assay.

For `C#Cc1cccc(Nc2ncnc3cc(OCCOC)c(OCCOC)cc23)c1` [ERLOTINIB], which IC50 is on record?
The IC50 was greater than 2000 nM.

tested on: TE-10; experiment: cells; assay type: functional, cell-based, Homo sapiens; conditions: Homo sapiens, TE-10;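 note: growth inhibition of TE-10 cells, measured by a cell viability assay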
Description: SANGER: Inhibition of human TE-10 cell growth in a cell viability assay.

`C#Cc1cccc(Nc2ncnc3cc(OCCOC)c(OCCOC)cc23)c1` [ERLOTINIB] was tested. Which IC50 did it give?
Its IC50 is greater than 2000 nM.

tested on: TE-6; experiment: cells; assay type: functional, cell-based, Homo sapiens; conditions: Homo sapiens, TE-6;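 note: growth inhibition of TE-6 cells, read out with a cell viability assay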
Description: SANGER: Inhibition of human TE-6 cell growth in a cell viability assay.

With `C#Cc1cccc(Nc2ncnc3cc(OCCOC)c(OCCOC)cc23)c1` [ERLOTINIB] as the compound, how does the IC50 read?
Its IC50 is greater than 2000 nM.

tested on: TE-9; experiment: cells; assay type: functional, cell-based, Homo sapiens; conditions: Homo sapiens, TE-9;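 note: cell growth inhibition, measured with a cell viability readout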
Description: SANGER: Inhibition of human TE-9 cell growth in a cell viability assay.

How did the IC50 turn out when `C#Cc1cccc(Nc2ncnc3cc(OCCOC)c(OCCOC)cc23)c1` [ERLOTINIB] was run?
The IC50 was 1230 nM.

tested on: U-87 MG; experiment: cells; assay type: functional, cell-based, Homo sapiens, U-87MG ATCC; conditions: Homo sapiens, U-87 MG;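 note: growth inhibition of the cells measured with a viability assay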
Description: SANGER: Inhibition of human U-87-MG cell growth in a cell viability assay.

With `C#Cc1cccc(Nc2ncnc3cc(OCCOC)c(OCCOC)cc23)c1` [ERLOTINIB] as the compound, how does the IC50 read?
The IC50 was greater than 2000 nM.

tested on: UACC-257; experiment: cells; assay type: functional, cell-based, Homo sapiens; conditions: Homo sapiens, UACC-257
Description: SANGER: Inhibition of human UACC-257 cell growth in a cell viability assay.

How did the IC50 turn out when `C#Cc1cccc(Nc2ncnc3cc(OCCOC)c(OCCOC)cc23)c1` [ERLOTINIB] was run?
The IC50 was greater than 2000 nM.
